Values quoted from earlier work in US20210137903A1, “ANTI-ANDROGENS FOR THE TREATMENT OF PROSTRATE CANCER” (priority 2019, published 2021).

Assays:
[1] = target: AR (Homo sapiens, UniProt P10275); conditions: cited from earlier work
[2] = target: T1, T877A AR mutant (Homo sapiens, UniProt P10275, T878A); conditions: cited from earlier work
T1 sequence (P10275 1-920 T878A): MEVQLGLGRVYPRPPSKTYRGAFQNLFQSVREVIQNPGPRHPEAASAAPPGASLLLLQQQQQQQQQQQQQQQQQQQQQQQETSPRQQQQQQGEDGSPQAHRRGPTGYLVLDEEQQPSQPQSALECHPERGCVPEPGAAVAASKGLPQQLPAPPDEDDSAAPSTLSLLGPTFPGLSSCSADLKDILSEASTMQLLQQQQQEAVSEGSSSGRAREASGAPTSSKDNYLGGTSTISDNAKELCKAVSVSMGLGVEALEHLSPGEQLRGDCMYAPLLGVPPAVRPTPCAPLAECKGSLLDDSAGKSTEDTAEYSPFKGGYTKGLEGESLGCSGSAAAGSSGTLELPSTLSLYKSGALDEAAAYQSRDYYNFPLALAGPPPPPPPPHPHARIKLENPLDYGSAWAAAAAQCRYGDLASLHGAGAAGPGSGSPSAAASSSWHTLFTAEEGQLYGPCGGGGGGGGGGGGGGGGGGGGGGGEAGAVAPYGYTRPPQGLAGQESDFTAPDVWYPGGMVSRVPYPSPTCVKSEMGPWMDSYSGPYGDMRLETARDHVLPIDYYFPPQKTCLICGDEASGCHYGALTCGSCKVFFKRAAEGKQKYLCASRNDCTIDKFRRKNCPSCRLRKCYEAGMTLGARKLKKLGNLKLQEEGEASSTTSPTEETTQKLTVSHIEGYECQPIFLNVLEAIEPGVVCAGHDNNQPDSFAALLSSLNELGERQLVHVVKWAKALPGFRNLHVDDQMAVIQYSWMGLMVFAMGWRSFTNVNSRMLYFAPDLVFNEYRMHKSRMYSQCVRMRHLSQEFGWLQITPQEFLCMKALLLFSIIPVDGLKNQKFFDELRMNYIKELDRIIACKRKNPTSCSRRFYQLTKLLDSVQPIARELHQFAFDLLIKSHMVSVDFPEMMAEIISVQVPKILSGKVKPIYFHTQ

Chain of AR (P10275 whole entry): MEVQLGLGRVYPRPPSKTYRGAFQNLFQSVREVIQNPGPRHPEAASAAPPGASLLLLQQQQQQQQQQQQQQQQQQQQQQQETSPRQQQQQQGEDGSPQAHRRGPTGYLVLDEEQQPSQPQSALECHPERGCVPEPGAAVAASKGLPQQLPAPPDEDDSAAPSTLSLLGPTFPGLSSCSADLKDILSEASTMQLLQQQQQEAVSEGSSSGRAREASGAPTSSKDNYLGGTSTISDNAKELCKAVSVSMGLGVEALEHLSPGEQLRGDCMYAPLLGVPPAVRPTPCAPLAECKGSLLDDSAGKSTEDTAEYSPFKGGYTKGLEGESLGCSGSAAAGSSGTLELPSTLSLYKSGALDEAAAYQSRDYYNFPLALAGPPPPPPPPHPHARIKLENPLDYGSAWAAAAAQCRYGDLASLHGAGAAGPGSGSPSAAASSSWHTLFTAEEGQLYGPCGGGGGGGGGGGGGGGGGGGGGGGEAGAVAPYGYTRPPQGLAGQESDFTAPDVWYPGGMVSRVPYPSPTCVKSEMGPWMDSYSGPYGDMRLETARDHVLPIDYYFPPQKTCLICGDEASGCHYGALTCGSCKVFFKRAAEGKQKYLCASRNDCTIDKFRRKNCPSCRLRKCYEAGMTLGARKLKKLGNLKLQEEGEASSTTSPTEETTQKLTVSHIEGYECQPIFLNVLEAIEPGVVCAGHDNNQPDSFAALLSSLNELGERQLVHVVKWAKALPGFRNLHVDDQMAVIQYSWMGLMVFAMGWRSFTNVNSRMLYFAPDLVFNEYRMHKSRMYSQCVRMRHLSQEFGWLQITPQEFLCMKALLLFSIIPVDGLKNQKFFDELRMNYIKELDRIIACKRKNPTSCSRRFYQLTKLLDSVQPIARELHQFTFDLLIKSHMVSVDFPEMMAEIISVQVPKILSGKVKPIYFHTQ

| Compound | affinity of binding to AR [1] | AR agonist activity [2] |
| --- | --- | --- |
| CC(O)c1cc(C(=O)N[C@@H](C)Cn2ccc(-c3ccc(C#N)c(Cl)c3)n2)[nH]n1 (some centres unmarked) [Darolutamide] | high affinity | – |
| CC(C)(O)C(=O)Nc1ccc([N+](=O)[O-])c(C(F)(F)F)c1 [hydroxyflutamide] | – | act as AR agonists |
